According to EPA's ToxRefDB 2:

Assays:
rabbit [1] = settings: Prenatal developmental toxicity study, himalayan, Oral, Gavage/Intubation, dose end: 27 GD
rat [2] = settings: Prenatal developmental toxicity study, sprague dawley, Oral, Gavage/Intubation, dose end: 15 GD
rat [3] = settings: Combined chronic toxicity/carcinogenicity, sprague dawley, Oral, Feed, dose end: 106 week
rat [4] = settings: Peri- and post-natal toxicity study (Segment III), wistar, Oral, Gavage/Intubation, dose end: 21 PND
rat [5] = settings: Multigenerational reproductive toxicity study, wistar, Oral, Gavage/Intubation, dose end: 1 generation
rat [6] = settings: Multigenerational reproductive toxicity study, wistar, Oral, Feed, dose end: 2 generation
rat [7] = settings: Prenatal developmental toxicity study, sprague dawley albino, Oral, Gavage/Intubation, dose end: 19 GD
rat [8] = settings: Prenatal developmental toxicity study, sprague dawley, Oral, Gavage/Intubation, dose end: 15 GD; remark: listed apart in the source
rabbit [9] = settings: Prenatal developmental toxicity study, new zealand white, Oral, Gavage/Intubation, dose end: 19 GD
mouse [10] = settings: Prenatal developmental toxicity study, cd1, Oral, Gavage/Intubation, dose end: 15 GD
mouse [11] = settings: Multigenerational reproductive toxicity study, cd1, Oral, Water, dose end: 1 generation
[12] = group: developmental, developmental / developmental malformation / bone / [other] + developmental / developmental malformation / bone / fused + developmental / …
[13] = group: maternal, reproductive / reproductive performance / postimplantation loss / postimplantation loss + systemic / in life observation / body weight / …
[14] = group: developmental, developmental / developmental malformation / trunk / ecchymosis
[15] = group: developmental, developmental / developmental malformation / trunk / ecchymosis + developmental / developmental malformation / bone / incomplete …
[16] = group: maternal, systemic / in life observation / body weight / body weight gain + systemic / in life observation / food consumption / food consumption
[17] = group: maternal, systemic / in life observation / body weight / body weight gain + systemic / in life observation / food consumption / food consumption + …
[18] = group: cholinesterase, cholinesterase / cholinesterase / cholinesterase / erythrocyte cholinesterase (che) + cholinesterase / cholinesterase / cholinesterase / …
[19] = group: systemic, systemic / in life observation / body weight / body weight + systemic / in life observation / body weight / body weight gain + systemic / in…
[20] = group: offspring, systemic / in life observation / body weight / offspring (pup) weight gain
[21] = group: parental, systemic / in life observation / body weight / body weight gain + systemic / in life observation / food consumption / food consumption
[22] = group: reproductive, reproductive / offspring survival early / dead fetuses / dead fetuses
[23] = group: offspring, systemic / organ weight / liver / absolute + systemic / organ weight / liver / nos + systemic / organ weight / epididymis / absolute + …
[24] = group: offspring, systemic / organ weight / testes / nos
[25] = group: parental, systemic / organ weight / testes / absolute
[26] = group: parental, systemic / organ weight / testes / absolute + systemic / organ weight / liver / nos + systemic / organ weight / testes / nos + systemic / …
[27] = group: reproductive, reproductive / reproductive performance / fertility / fertility
[28] = group: developmental, developmental / developmental landmark / anogenital distance (agd) / anogenital distance (agd)
[29] = group: developmental, developmental / developmental malformation / bone / absent + developmental / developmental malformation / bone / supernumerary
[30] = group: developmental, developmental / developmental malformation / bone / absent + developmental / developmental malformation / bone / supernumerary + systemic / …
[31] = group: maternal, systemic / in life observation / body weight / body weight gain
[32] = group: maternal, systemic / in life observation / body weight / body weight gain + systemic / in life observation / clinical signs / salivation + systemic / …
[33] = group: developmental, developmental / developmental malformation / general / local edema + developmental / developmental malformation / great vessels / persistent…
[34] = group: maternal, reproductive / reproductive performance / preimplantation loss / preimplantation loss + reproductive / reproductive performance / …
[35] = group: developmental, developmental / developmental malformation / bone / exencephaly + developmental / developmental malformation / bone / fused + developmental…
[36] = group: maternal, systemic / organ weight / liver / relative to body weight
[37] = group: offspring, systemic / in life observation / body weight / offspring (pup) weight
[38] = group: parental, systemic / organ weight / liver / absolute + systemic / organ weight / liver / relative to body weight + systemic / organ weight / pituitary…
[39] = group: reproductive, reproductive / reproductive performance / reproductive performance other / NOS + reproductive / reproductive performance / gestational …

CCCCCCCCCCCCCC[N+](C)(C)CCC[Si](OC)(OC)OC.[Cl-]
LEL (rabbit [1]; [12]): 180 mg/kg/day | LOAEL (rabbit [1]; [12]): > 180 mg/kg/day | NEL (rabbit [1]; [12]): 90 mg/kg/day | NOAEL (rabbit [1]; [12]): ≥ 180 mg/kg/day | LEL (rabbit [1]; [13]): 180 mg/kg/day | LOAEL (rabbit [1]; [13]): > 180 mg/kg/day | NEL (rabbit [1]; [13]): 90 mg/kg/day | NOAEL (rabbit [1]; [13]): ≥ 180 mg/kg/day

CNC(=O)O/N=C/C(C)(C)SC [Aldicarb]
LEL (rat [2]; [14]): 0.25 mg/kg/day | LOAEL (rat [2]; [14]): 0.25 mg/kg/day | NEL (rat [2]; [15]): 0.125 mg/kg/day | NOAEL (rat [2]; [15]): 0.125 mg/kg/day | LEL (rat [2]; [16]): 0.25 mg/kg/day | LOAEL (rat [2]; [16]): 0.25 mg/kg/day | NEL (rat [2]; [17]): 0.125 mg/kg/day | NOAEL (rat [2]; [17]): 0.125 mg/kg/day | LEL (rat [3]; [18]): 0.47 mg/kg/day | LOAEL (rat [3]; [18]): 0.47 mg/kg/day | NEL (rat [3]; [18]): 0.047 mg/kg/day | NOAEL (rat [3]; [18]): 0.047 mg/kg/day | LEL (rat [3]; [19]): 1.44 mg/kg/day | LOAEL (rat [3]; [19]): > 1.44 mg/kg/day | NEL (rat [3]; [19]): 0.47 mg/kg/day | NOAEL (rat [3]; [19]): ≥ 1.44 mg/kg/day

CCOCC(O)COc1ccc(NC(=O)CC[S+](C)C)cc1.Cc1ccc(S(=O)(=O)[O-])cc1 (stereo unspecified) [Suplatast tosylate]
LEL (rat [4]; [20]): 1800 mg/kg/day | LOAEL (rat [4]; [20]): > 1800 mg/kg/day | NEL (rat [4]; [20]): 600 mg/kg/day | NOAEL (rat [4]; [20]): ≥ 1800 mg/kg/day | LEL (rat [4]; [21]): 1800 mg/kg/day | LOAEL (rat [4]; [21]): > 1800 mg/kg/day | NEL (rat [4]; [21]): 600 mg/kg/day | NOAEL (rat [4]; [21]): ≥ 1800 mg/kg/day | LEL (rat [5]; [21]): 1800 mg/kg/day | LOAEL (rat [5]; [21]): > 1800 mg/kg/day | NEL (rat [5]; [21]): 600 mg/kg/day | NOAEL (rat [5]; [21]): ≥ 1800 mg/kg/day | LEL (rat [5]; [22]): 1800 mg/kg/day | LOAEL (rat [5]; [22]): > 1800 mg/kg/day | NEL (rat [5]; [22]): 600 mg/kg/day | NOAEL (rat [5]; [22]): ≥ 1800 mg/kg/day

CC12CC1(C)C(=O)N(c1cc(Cl)cc(Cl)c1)C2=O (stereo unspecified) [Procymidone]
LOAEL (rat [6]; [23]): > 77.8 mg/kg/day | NOAEL (rat [6]; [23]): ≥ 77.8 mg/kg/day | LEL (rat [6]; [24]): 5.35 mg/kg/day | NEL (rat [6]; [24]): < 5.35 mg/kg/day | LEL (rat [6]; [25]): 22.7 mg/kg/day | LOAEL (rat [6]; [25]): 22.7 mg/kg/day | NEL (rat [6]; [26]): 4.52 mg/kg/day | NOAEL (rat [6]; [26]): 4.52 mg/kg/day | LEL (rat [6]; [27]): 73.2 mg/kg/day | LOAEL (rat [6]; [27]): 73.2 mg/kg/day | NEL (rat [6]; [27]): 24.1 mg/kg/day | NOAEL (rat [6]; [27]): 24.1 mg/kg/day | LEL (rat [7]; [28]): 12.5 mg/kg/day | LOAEL (rat [7]; [28]): 12.5 mg/kg/day | NEL (rat [7]; [28]): 3.5 mg/kg/day | NOAEL (rat [7]; [28]): 3.5 mg/kg/day | LOAEL (rat [7]; [16]): 125 mg/kg/day | LEL (rat [7]; [17]): 125 mg/kg/day | NEL (rat [7]; [17]): 12.5 mg/kg/day | NOAEL (rat [7]; [17]): 12.5 mg/kg/day

C=C(C)C1CC=C(C)CC1 (stereo unspecified) [Limonene]
LEL (rat [8]; [29]): 500 mg/kg/day | LOAEL (rat [8]; [29]): 500 mg/kg/day | NEL (rat [8]; [30]): 250 mg/kg/day | NOAEL (rat [8]; [30]): 250 mg/kg/day | LEL (rat [8]; [31]): 500 mg/kg/day | LOAEL (rat [8]; [31]): 500 mg/kg/day | NEL (rat [8]; [32]): 250 mg/kg/day | NOAEL (rat [8]; [32]): 250 mg/kg/day

COCCOCCOCCOC [Triethylene glycol dimethyl ether]
LOAEL (rabbit [9]; [33]): > 250 mg/kg/day | NEL (rabbit [9]; [33]): 75 mg/kg/day | NOAEL (rabbit [9]; [33]): ≥ 250 mg/kg/day | LEL (rabbit [9]; group: developmental, developmental / developmental malformation / spleen / small): 125 mg/kg/day | LOAEL (rabbit [9]; [34]): > 250 mg/kg/day | NEL (rabbit [9]; [34]): 125 mg/kg/day | NOAEL (rabbit [9]; [34]): ≥ 250 mg/kg/day | LEL (rabbit [9]; [31]): 175 mg/kg/day | LOAEL (mouse [10]; [35]): > 1000 mg/kg/day | NEL (mouse [10]; [35]): 250 mg/kg/day | NOAEL (mouse [10]; [35]): ≥ 1000 mg/kg/day | LEL (mouse [10]; group: developmental, systemic / in life observation / body weight / fetal weight): 500 mg/kg/day | LEL (mouse [10]; [36]): 500 mg/kg/day | LOAEL (mouse [10]; [36]): > 1000 mg/kg/day | NEL (mouse [10]; [36]): 250 mg/kg/day | NOAEL (mouse [10]; [36]): ≥ 1000 mg/kg/day | LEL (mouse [11]; [37]): 87.5 mg/kg/day | LOAEL (mouse [11]; [37]): > 175 mg/kg/day | NEL (mouse [11]; [37]): 43.8 mg/kg/day | NOAEL (mouse [11]; [37]): ≥ 175 mg/kg/day | LEL (mouse [11]; [38]): 175 mg/kg/day | LOAEL (mouse [11]; [38]): > 175 mg/kg/day | NEL (mouse [11]; [38]): 87.5 mg/kg/day | NOAEL (mouse [11]; [38]): ≥ 175 mg/kg/day | LEL (mouse [11]; group: reproductive, reproductive / reproductive performance / gestational length / gestational length): 87.5 mg/kg/day | LOAEL (mouse [11]; [39]): > 175 mg/kg/day | NEL (mouse [11]; [39]): 43.8 mg/kg/day | NOAEL (mouse [11]; [39]): ≥ 175 mg/kg/day
